Source: patent US9113629B2, “4-amino-6-(4-substituted-phenyl)-picolinates and 6-amino-2-(4-substituted-phenyl)-pyrimidine-4-carboxylates and their use as herbicides” (DOW AGROSCIENCES LLC, priority 2013, dated 2015)
Like-named read-outs stand apart in the source and are kept apart here.

Tests used:
[1] = system: Key Grass and Sedge Weeds as well as Grass Crops; experiment: Post-emergent Test II herbicidal activity (Table 6); format: in vivo; details: post-emergence, 336 h; for pest or weed control at 70 g/ha: application rate 70 g ai/ha; for pest or weed control at 140 g/ha: application rate 140 g ai/ha
Description: Post-emergent Test II: Seeds or nutlets of the desired test plant species were planted in Sun Gro Metro-Mix® 360 planting mixture, which typically has a pH of 6.0 to 6.8 and an organic matter content of about 30 percent, in plastic pots with a surface area of 64 square centimeters. When required to ensure good germination and healthy plants, a fungicide treatment and/or other chemical or physical treatment was applied. The plants were grown for 7-21 d in a greenhouse with an approximate 15 h photoperiod which was maintained at about 23-29° C. during the day and 22-28° C. during the night. Nutrients and water were added on a regular basis and supplemental lighting was provided with overhead metal halide 1000-Watt lamps as necessary. The plants were employed for testing when they reached the first or second true leaf stage.
A weighed amount, determined by the highest rate to be tested, of each test compound was placed in a 25 mL glass vial and was dissolved in 4 mL of a 97:3 v/v mixture of acetone and DMSO to obtain concentrated stock solutions. […] The concentrated stock solutions obtained were diluted with 20 mL of an aqueous mixture containing acetone, water, isopropyl alcohol, DMSO. Atplus 411F crop oil concentrate, and Triton® X-155 surfactant in a 48.5:39:10:1.5:1.0:0.02 v/v ratio to obtain spray solutions containing the highest application rates. Additional application rates were obtained by serial dilution of 12 mL of the high rate solution into a solution containing 2 mL of 97:3 v/v mixture of acetone and DMSO and 10 mL of an aqueous mixture containing acetone, water, isopropyl alcohol, DMSO, Atplus 411F crop oil concentrate, and Triton X-155 surfactant in a 48.5:39:10:1.5:1.0:0.02 v/v ratio to obtain ½×, ¼×, ⅛× and 1/16× rates of the high rate. Compound requirements are based upon a 12 mL application volume at a rate of 187 liters per hectare (L/ha). Formulated compounds were applied to the plant material with an overhead Mandel track sprayer equipped with 8002E nozzles calibrated to deliver 187 L/ha over an application area of 0.503 square meters at a spray height of 18 inches (43 cm) above the average plant canopy height. Control plants were sprayed in the same manner with the solvent blank.
The treated plants and control plants were placed in a greenhouse as described above and watered by subirrigation to prevent wash-off of the test compounds. After 14 d, the condition of the test plants as compared with that of the untreated plants was determined visually and scored on a scale of 0 to 100 percent where 0 corresponds to no injury and 100 corresponds to complete kill.

[2] = system: Key Broadleaf Weed and Crop Species; experiment: Post-emergent Test II herbicidal activity (Table 5); format: in vivo; details: post-emergence, 336 h, 14 days after application
In short: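 Greenhouse post-emergent assay: seedlings (first/second true leaf) in Metro-Mix 360 were sprayed at 187 L/ha at a top rate plus twofold dilutions down to 1/16×; solvent-blank controls were included. Percent visual injury was read at 14 d.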

[3] = CYPES: yellow nutsedge (Cyperus esculentus), read-out: Visual Growth Reduction (%) 14 Days After Application, CYPES
[4] = DIGSA: crabgrass (Digitaria sanguinalis), read-out: Visual Growth Reduction (%) 14 Days After Application, DIGSA
[5] = ECHCG: barnyardgrass (Echinochloa crus-galli), read-out: Visual Growth Reduction (%) 14 Days After Application, ECHCG
[6] = ORYSA: rice (Oryza sativa), read-out: Visual Growth Reduction (%) 14 Days After Application, ORYSA
[7] = SETFA: giant foxtail (Setaria faberi), read-out: Visual Growth Reduction (%) 14 Days After Application, SETFA
[8] = SORVU: grain sorghum (Sorghum vulgare), read-out: Visual Growth Reduction (%) 14 Days After Application, SORVU
[9] = TRZSS (wheat, Triticum aestivum), read-out: Visual Growth Reduction (%) 14 Days After Application, TRZSS
[10] = ZEAMX: maize, corn (Zea mays), read-out: Visual Growth Reduction (%) 14 Days After Application, ZEAMX
[11] = Triticum aestivum, TRZSS (wheat), read-out: Visual Growth Reduction (%) 14 Days After Application, TRZSS

Q: For `Cc1c(-c2ccc(I)c(F)c2)nc(C(=O)O)c(Cl)c1N` [Compound 87, 4-Amino-3-chloro-6-(3-fluoro-4-iodophenyl)-5-methylpicolinic acid], which melting point is on record?
A: Its melting point is 171 to 172 °C.

Q: What about the pest or weed control at 70 g/ha [1, 3] of the same molecule?
A: Its pest or weed control at 70 g/ha is 0 to 29%.

Q: And the pest or weed control at 140 g/ha [1, 3]?
A: Its pest or weed control at 140 g/ha is 45 to 59%.

Q: What about the pest or weed control at 70 g/ha [1, 4] of the same molecule?
A: Its pest or weed control at 70 g/ha is 60 to 74%.

Q: What about the pest or weed control at 140 g/ha [1, 4] of the same molecule?
A: The pest or weed control at 140 g/ha was 60 to 74%.

Q: And the pest or weed control at 70 g/ha [1, 5]?
A: The pest or weed control at 70 g/ha was 75 to 84%.

Q: And the pest or weed control at 140 g/ha [1, 5]?
A: Its pest or weed control at 140 g/ha is 75 to 84%.

Q: And the pest or weed control at 70 g/ha [1, 6]?
A: Its pest or weed control at 70 g/ha is 0 to 29%.

Q: What about the pest or weed control at 140 g/ha [1, 6] of the same molecule?
A: The pest or weed control at 140 g/ha was 0 to 29%.

Q: What about the pest or weed control at 70 g/ha [1, 7] of the same molecule?
A: Its pest or weed control at 70 g/ha is 60 to 74%.

Q: What about the pest or weed control at 140 g/ha [1, 7] of the same molecule?
A: The pest or weed control at 140 g/ha was 75 to 84%.

Q: And the pest or weed control at 70 g/ha [1, 8]?
A: Its pest or weed control at 70 g/ha is 60 to 74%.

Q: What about the pest or weed control at 140 g/ha [1, 8] of the same molecule?
A: Its pest or weed control at 140 g/ha is 60 to 74%.

Q: What about the pest or weed control at 70 g/ha [1, 9] of the same molecule?
A: Its pest or weed control at 70 g/ha is 60 to 74%.

Q: What about the pest or weed control at 140 g/ha [1, 9] of the same molecule?
A: Its pest or weed control at 140 g/ha is 60 to 74%.

Q: What about the pest or weed control at 70 g/ha [1, 10] of the same molecule?
A: Its pest or weed control at 70 g/ha is 60 to 74%.

Q: What about the pest or weed control at 140 g/ha [1, 10] of the same molecule?
A: The pest or weed control at 140 g/ha was 60 to 74%.

Q: What about the pest or weed control at 70 g/ha ([2]; ABUTH: velvetleaf (Abutilon theophrasti), 70 g ai/ha, post-emergent, read-out: Visual Growth Reduction (%) 14 Days After Application ABUTH) of the same molecule?
A: The pest or weed control at 70 g/ha was 85 to 94%.

Q: What about the pest or weed control at 140 g/ha ([2]; ABUTH: velvetleaf (Abutilon theophrasti), 140 g ai/ha, post-emergent, read-out: Visual Growth Reduction (%) 14 Days After Application ABUTH) of the same molecule?
A: Its pest or weed control at 140 g/ha is 85 to 94%.

Q: And the pest or weed control at 70 g/ha ([2]; BRSNN: oilseed-rape, canola (Brassica napus), 70 g ai/ha, post-emergent, read-out: Visual Growth Reduction (%) 14 Days After Application BRSNN)?
A: Its pest or weed control at 70 g/ha is 95 to 100%.

Q: What about the pest or weed control at 140 g/ha ([2]; BRSNN: oilseed-rape, canola (Brassica napus), 140 g ai/ha, post-emergent, read-out: Visual Growth Reduction (%) 14 Days After Application BRSNN) of the same molecule?
A: The pest or weed control at 140 g/ha was 95 to 100%.

Q: What about the pest or weed control at 70 g/ha ([2]; CHEAL: lambsquarters (Chenopodium album), 70 g ai/ha, post-emergent, read-out: Visual Growth Reduction (%) 14 Days After Application CHEAL) of the same molecule?
A: The pest or weed control at 70 g/ha was 85 to 94%.

Q: And the pest or weed control at 140 g/ha ([2]; CHEAL: lambsquarters (Chenopodium album), 140 g ai/ha, post-emergent, read-out: Visual Growth Reduction (%) 14 Days After Application CHEAL)?
A: Its pest or weed control at 140 g/ha is 85 to 94%.

Q: And the pest or weed control at 70 g/ha ([2]; EPHHL: wild poinsettia (Euphorbia heterophylla), 70 g ai/ha, post-emergent, read-out: Visual Growth Reduction (%) 14 Days After Application EPHHL)?
A: Its pest or weed control at 70 g/ha is 0 to 29%.

Q: And the pest or weed control at 140 g/ha ([2]; EPHHL: wild poinsettia (Euphorbia heterophylla), 140 g ai/ha, post-emergent, read-out: Visual Growth Reduction (%) 14 Days After Application EPHHL)?
A: Its pest or weed control at 140 g/ha is 0 to 29%.

Q: What about the pest or weed control at 70 g/ha ([2]; HELAN: sunflower (Helianthus annuus), 70 g ai/ha, post-emergent, read-out: Visual Growth Reduction (%) 14 Days After Application HELAN) of the same molecule?
A: Its pest or weed control at 70 g/ha is 85 to 94%.

Q: And the pest or weed control at 140 g/ha ([2]; HELAN: sunflower (Helianthus annuus), 140 g ai/ha, post-emergent, read-out: Visual Growth Reduction (%) 14 Days After Application HELAN)?
A: Its pest or weed control at 140 g/ha is 85 to 94%.

Q: What about the pest or weed control at 70 g/ha ([2]; VIOTR: wild pansy (Viola tricolor), 70 g ai/ha, post-emergent, read-out: Visual Growth Reduction (%) 14 Days After Application VIOTR) of the same molecule?
A: Its pest or weed control at 70 g/ha is 60 to 74%.

Q: And the pest or weed control at 140 g/ha ([2]; VIOTR: wild pansy (Viola tricolor), 140 g ai/ha, post-emergent, read-out: Visual Growth Reduction (%) 14 Days After Application VIOTR)?
A: Its pest or weed control at 140 g/ha is 85 to 94%.

Q: Which results are given for `Nc1c(F)c(-c2ccc(OC(F)F)c(F)c2)nc(C(=O)O)c1Cl` [Compound 92, 4-amino-3-chloro-6-(4-(difluoromethoxy)-3-fluorophenyl)-5-fluoropicolinic acid]?
A: melting point: 147 to 149 °C; pest or weed control at 70 g/ha [1, 11]: 30 to 44%; pest or weed control at 140 g/ha [1, 11]: 45 to 59%; pest or weed control at 70 g/ha [1, 3]: 0 to 29%; pest or weed control at 140 g/ha [1, 3]: 0 to 29%; pest or weed control at 70 g/ha [1, 4]: 60 to 74%; pest or weed control at 140 g/ha [1, 4]: 60 to 74%; pest or weed control at 70 g/ha [1, 6]: 0 to 29%; pest or weed control at 140 g/ha [1, 6]: 0 to 29%; pest or weed control at 70 g/ha [1, 8]: 30 to 44%; pest or weed control at 140 g/ha [1, 8]: 45 to 59%; pest or weed control at 70 g/ha [1, 10]: 60 to 74%; pest or weed control at 140 g/ha [1, 10]: 60 to 74%; pest or weed control at 70 g/ha ([2]; ABUTH: velvetleaf (Abutilon theophrasti), application rate 70 g ai/ha, read-out: Visual Growth Reduction (%) 14 Days After Application, ABUTH): 0 to 29%; pest or weed control at 140 g/ha ([2]; ABUTH: velvetleaf (Abutilon theophrasti), application rate 140 g ai/ha, read-out: Visual Growth Reduction (%) 14 Days After Application, ABUTH): 0 to 29%; pest or weed control at 70 g/ha ([2]; AMARE: redroot pigweed (Amaranthus retroflexus), application rate 70 g ai/ha, read-out: Visual Growth Reduction (%) 14 Days After Application, AMARE): 45 to 59%; pest or weed control at 140 g/ha ([2]; AMARE: redroot pigweed (Amaranthus retroflexus), application rate 140 g ai/ha, read-out: Visual Growth Reduction (%) 14 Days After Application, AMARE): 60 to 74%; pest or weed control at 70 g/ha ([2]; BRSNN: oilseed-rape, canola (Brassica napus), application rate 70 g ai/ha, read-out: Visual Growth Reduction (%) 14 Days After Application, BRSNN): 30 to 44%; pest or weed control at 140 g/ha ([2]; BRSNN: oilseed-rape, canola (Brassica napus), application rate 140 g ai/ha, read-out: Visual Growth Reduction (%) 14 Days After Application, BRSNN): 45 to 59%; pest or weed control at 70 g/ha ([2]; CHEAL: lambsquarters (Chenopodium album), application rate 70 g ai/ha, read-out: Visual Growth Reduction (%) 14 Days After Application, CHEAL): 85 to 94%; pest or weed control at 140 g/ha ([2]; CHEAL: lambsquarters (Chenopodium album), application rate 140 g ai/ha, read-out: Visual Growth Reduction (%) 14 Days After Application, CHEAL): 85 to 94%; pest or weed control at 70 g/ha ([2]; EPHHL: wild poinsettia (Euphorbia heterophylla), application rate 70 g ai/ha, read-out: Visual Growth Reduction (%) 14 Days After Application, EPHHL): 95 to 100%; pest or weed control at 140 g/ha ([2]; EPHHL: wild poinsettia (Euphorbia heterophylla), application rate 140 g ai/ha, read-out: Visual Growth Reduction (%) 14 Days After Application, EPHHL): 95 to 100%; pest or weed control at 70 g/ha ([2]; HELAN: sunflower (Helianthus annuus), application rate 70 g ai/ha, read-out: Visual Growth Reduction (%) 14 Days After Application, HELAN): 60 to 74%; pest or weed control at 140 g/ha ([2]; HELAN: sunflower (Helianthus annuus), application rate 140 g ai/ha, read-out: Visual Growth Reduction (%) 14 Days After Application, HELAN): 75 to 84%; pest or weed control at 70 g/ha ([2]; VIOTR: wild pansy (Viola tricolor), application rate 70 g ai/ha, read-out: Visual Growth Reduction (%) 14 Days After Application, VIOTR): 0 to 29%; pest or weed control at 140 g/ha ([2]; VIOTR: wild pansy (Viola tricolor), application rate 140 g ai/ha, read-out: Visual Growth Reduction (%) 14 Days After Application, VIOTR): 0 to 29%
